How the values were obtained:
[1] = test system: MEF-SuFu−/− cells; assay: Gli1 mRNA (quantitative RT-PCR) in MEF-SuFu−/− cells; format: cell-based, mouse; settings: different concentrations, 48 h
Experimental: FIG. 9. Confluent MEF-SuFu^−/− cells were treated with DMSO (0.5%, vehicle), GANT61 (10 μM, as positive control) or different concentrations of Glabrescione B for 48 h. Gli1 mRNA levels were determined by quantitative RT-PCR, normalizing to HPRT expression. Error bars indicate SD.
To analyze the antagonist properties of Glabrescione B under more physiological conditions, the inventors used MEF-Ptch^−/− cells, embryo fibroblasts derived from Ptch^−/− mouse, in which the activation of Hh signaling is consequence of Ptch1 deletion. Since Patched acts as upstream repressor of SMO, inhibition of the Hedgehog pathway from Patched is prevented and the Hedgehog pathway is constitutively activated in this cell lines, which turned out to be a reliable cellular model for studying the effect of Hedgehog inhibitors. […]
To further elucidate the concept of downstream pathway inhibition by Glabrescione B, the inventors used MEF-SuFu^−/− cells (a kind gift by R. Toftgard, Karolinska Institutet, Sweden, Svärd, J. et al, 2006), in which the downstream Hh pathway activation is consequence of SuFu genetic ablation. Confluent cells were treated with Glabrescione B at the amount indicated in the FIG. 9 and Gli1 expression levels were determined by quantitative RT-PCR as previously described. […]

[2] = test system: human MB D283 cells; assay: Proliferation (BrdU), viability (MTS) and cell death (Trypan Blue) of MB D283 cells; format: cell-based; settings: 48 h
Experimental: FIG. 11. (A) Human MB D283 cells were treated with different concentrations of Glabrescione B as indicated for 48 h. Inhibition of cell proliferation was measured as percentage of BrdU incorporation in comparison to DMSO (0.5%, vehicle) treated sample. (B) Human MB D283 cells were treated for 48 h with increasing concentrations of Glabrescione B as indicated. After 48 h, CellTiter 96® Aqueous One Solution Reagent was added to each well according to the manufacturer's instructions. After one hour in culture the cell viability (expressed in % viability) was determined by measuring the absorbance at 490 nm comparing treatment with DMSO (0.5%, vehicle) control.
FIG. 12. […]
A biological assay was performed in cerebellar neural progenitors cells obtained from 4-days-old mice, when they are actively proliferating under Sonic Hedgehog (Shh) stimulus. As expected, treatment of these cells with Shh increased the proliferation rate, as evaluated by BrdU-incorporation assay. […]
More important, Glabrescione B was able to promote cell death of D283 MB cells, as reported by Trypan Blue count assay (FIG. 12). […] Cell death was measured by Trypan Blue (Sigma, cat. #T8154) exclusion counting at least 200 cells, in duplicate samples. All described assays were evaluated at 48 h after treatment.

COc1cc(OC)c2c(=O)c(-c3ccc(OCC=C(C)C)c(OCC=C(C)C)c3)coc2c1 [Glabrescione B, 3-(3′,4′-bis(3-methylbut-2-enyloxy)phenyl)-5,7-dimethoxy-4H-chromen-4-one]
Gli1 expression levels (quantitative RT-PCR) [1]: significant reduction of the high expression levels of Gli1
percentage of cell death (Trypan Blue) [2]: increase of the percentage of cell death, in a dose-dependent manner
growth rate inhibition ([2]; dose range of 1-50 μM, MTS and BrdU incorporation): 70-95%

Reference: patent US10093642B2, “Multitarget hedgehog pathway inhibitors and uses thereof” (UNIVERSITA' DEGLI STUDI DI SIENA, priority 2013, dated 2018)
